According to patent publication US20100061928A1, “LABELLED ANALOGUES OF HALOBENZAMIDES AS RADIOPHARMACEUTICALS” (Institut National De La Sante et De La Recherche Medicale …, priority 2006, published 2010):

Tests used:
[1] = test system: grafted B16 F0 murine melanoma tumour; assay: Biodistribution of the ^125I-labelled molecules in the melanoma-bearing mouse (autoradiography of whole-body sections); conditions: for Concentration of radioactivity, B 16 (tumour), Mean / Concentration of radioactivity, Ic (intestinal contents), Mean / Concentration of radioactivity, Sc (stomach contents), Mean / Concentration of radioactivity, blood (measured in the heart cavity), Mean / Concentration of radioactivity, kidney, Mean / Concentration of radioactivity, liver, Mean / Concentration of radioactivity, lungs, Mean / Concentration of radioactivity, muscle (skeletal muscle), Mean / Concentration of radioactivity, pancreas, Mean / Concentration of radioactivity, spleen, Mean / Concentration of radioactivity, uvea (pigmented tissues of the eye), Mean / Concentration of radioactivity, GB (gall bladder), Mean / Concentration of radioactivity, thyroid, Mean / Concentration of radioactivity, brain, Mean: ^125I-labelled compound; for tumour concentration, times higher than with BZA: at 72 hours (FIG. 1B); for tumour concentration, % of the injected dose per gram of tumour: from the first hour
tumour = assay: Dosimetry with regard to the tumour (MIRD programme, extrapolated to ^131I); conditions: for Effective period: extrapolated to 131I labelling; for Biological period: from biodistribution data
[2] = Elimination of the molecules: cumulative urinary and faecal excretion 0-72 hours; type: in vivo, mouse; conditions: for Faecal elimination 0-72 hours (Faeces) / Urinary and faecal elimination 0-72 hours (Total) / Urinary elimination 0-72 hours (Urine): cumulative excretion 0-72 hours; for Faecal elimination 0-72 hours (Faeces) / Urinary elimination 0-72 hours (Urine): mice in metabolic cages; for Urinary and faecal elimination 0-72 hours (Total): urine + faeces

## CCN(CC)CCNC(=O)c1nc2ccc(I)cc2[nH]1.Cl.Cl [compound 26, N-(2-diethylaminoethyl)-5-iodobenzimidazole-2-carboxamide dihydrochloride]
[1]; 1 H after i.v. administration
  Concentration of radioactivity, B 16 (tumour), Mean: 14.78 % ID/g
  Concentration of radioactivity, Ic (intestinal contents), Mean: 105.55 % ID/g
  Concentration of radioactivity, Sc (stomach contents), Mean: 24.46 % ID/g
  Concentration of radioactivity, blood (measured in the heart cavity), Mean: 3.31 % ID/g
  Concentration of radioactivity, kidney, Mean: 6.90 % ID/g
  Concentration of radioactivity, liver, Mean: 13.08 % ID/g
  Concentration of radioactivity, lungs, Mean: 5.16 % ID/g
  Concentration of radioactivity, muscle (skeletal muscle), Mean: 0.55 % ID/g
  Concentration of radioactivity, pancreas, Mean: 6.17 % ID/g
  Concentration of radioactivity, spleen, Mean: 11.51 % ID/g
  Concentration of radioactivity, uvea (pigmented tissues of the eye), Mean: 12.87 % ID/g
[1]; 3 H after i.v. administration
  Concentration of radioactivity, B 16 (tumour), Mean: 16.13 % ID/g
  Concentration of radioactivity, GB (gall bladder), Mean: 160.60 % ID/g
  Concentration of radioactivity, Ic (intestinal contents), Mean: 72.05 % ID/g
  Concentration of radioactivity, Sc (stomach contents), Mean: 17.98 % ID/g
  Concentration of radioactivity, blood (measured in the heart cavity), Mean: 1.33 % ID/g
  Concentration of radioactivity, kidney, Mean: 4.57 % ID/g
  Concentration of radioactivity, liver, Mean: 7.15 % ID/g
  Concentration of radioactivity, lungs, Mean: 3.74 % ID/g
  Concentration of radioactivity, thyroid, Mean: 63.44 % ID/g
  Concentration of radioactivity, uvea (pigmented tissues of the eye), Mean: 24.40 % ID/g
[1]; 6 H after i.v. administration
  Concentration of radioactivity, B 16 (tumour), Mean: 9.90 % ID/g
  Concentration of radioactivity, GB (gall bladder), Mean: 38.11 % ID/g
  Concentration of radioactivity, Ic (intestinal contents), Mean: 95.86 % ID/g
  Concentration of radioactivity, Sc (stomach contents), Mean: 8.62 % ID/g
  Concentration of radioactivity, liver, Mean: 3.38 % ID/g
  Concentration of radioactivity, spleen, Mean: 14.97 % ID/g
  Concentration of radioactivity, thyroid, Mean: 34.17 % ID/g
  Concentration of radioactivity, uvea (pigmented tissues of the eye), Mean: 10.09 % ID/g
[1]; 24 H after i.v. administration
  Concentration of radioactivity, B 16 (tumour), Mean: 7.06 % ID/g
  Concentration of radioactivity, Ic (intestinal contents), Mean: 3.19 % ID/g
  Concentration of radioactivity, Sc (stomach contents), Mean: 2.32 % ID/g
  Concentration of radioactivity, thyroid, Mean: 142.88 % ID/g
  Concentration of radioactivity, uvea (pigmented tissues of the eye), Mean: 10.44 % ID/g
[1]; 72 H after i.v. administration
  Concentration of radioactivity, B 16 (tumour), Mean: 4.54 % ID/g
  Concentration of radioactivity, thyroid, Mean: 174.73 % ID/g
  Concentration of radioactivity, uvea (pigmented tissues of the eye), Mean: 7.26 % ID/g
[1]
  tumour concentration, times higher than with BZA: 6 times
  tumour concentration, % of the injected dose per gram of tumour: 14.8 % ID/g
tumour
  Effective period: 35.1 h
  Biological period: 42.9 hours
[2]
  Faecal elimination 0-72 hours (Faeces): 40.7%
  Urinary and faecal elimination 0-72 hours (Total): 57.8%
  Urinary elimination 0-72 hours (Urine): 17.1%
[2]; urine and faeces, up to 72 hours
  elimination kinetics from the body (in words): lower elimination

## CCN(CC)CCNC(=O)c1ccc2cc(I)ccc2n1.Cl.Cl [compound 31, N-(2-diethylaminoethyl)-6-iodoquinoline-2-carboxamide dihydrochloride]
[1]; 1 H after i.v. administration
  Concentration of radioactivity, B 16 (tumour), Mean: 19.63 % ID/g
  Concentration of radioactivity, Ic (intestinal contents), Mean: 15.78 % ID/g
  Concentration of radioactivity, Sc (stomach contents), Mean: 48.03 % ID/g
  Concentration of radioactivity, blood (measured in the heart cavity), Mean: 7.01 % ID/g
  Concentration of radioactivity, brain, Mean: 1.96 % ID/g
  Concentration of radioactivity, kidney, Mean: 11.82 % ID/g
  Concentration of radioactivity, liver, Mean: 10.92 % ID/g
  Concentration of radioactivity, lungs, Mean: 9.41 % ID/g
  Concentration of radioactivity, muscle (skeletal muscle), Mean: 1.79 % ID/g
  Concentration of radioactivity, pancreas, Mean: 9.80 % ID/g
  Concentration of radioactivity, spleen, Mean: 11.56 % ID/g
  Concentration of radioactivity, uvea (pigmented tissues of the eye), Mean: 32.71 % ID/g
[1]; 3 H after i.v. administration
  Concentration of radioactivity, B 16 (tumour), Mean: 25.35 % ID/g
  Concentration of radioactivity, Ic (intestinal contents), Mean: 20.65 % ID/g
  Concentration of radioactivity, Sc (stomach contents), Mean: 34.72 % ID/g
  Concentration of radioactivity, blood (measured in the heart cavity), Mean: 5.57 % ID/g
  Concentration of radioactivity, brain, Mean: 0.83 % ID/g
  Concentration of radioactivity, kidney, Mean: 12.59 % ID/g
  Concentration of radioactivity, liver, Mean: 8.89 % ID/g
  Concentration of radioactivity, lungs, Mean: 5.58 % ID/g
  Concentration of radioactivity, muscle (skeletal muscle), Mean: 1.14 % ID/g
  Concentration of radioactivity, pancreas, Mean: 6.17 % ID/g
  Concentration of radioactivity, spleen, Mean: 10.63 % ID/g
  Concentration of radioactivity, uvea (pigmented tissues of the eye), Mean: 33.10 % ID/g
[1]; 6 H after i.v. administration
  Concentration of radioactivity, B 16 (tumour), Mean: 17.21 % ID/g
  Concentration of radioactivity, Ic (intestinal contents), Mean: 23.36 % ID/g
  Concentration of radioactivity, Sc (stomach contents), Mean: 65.36 % ID/g
  Concentration of radioactivity, blood (measured in the heart cavity), Mean: 5.91 % ID/g
  Concentration of radioactivity, brain, Mean: 0.37 % ID/g
  Concentration of radioactivity, kidney, Mean: 7.60 % ID/g
  Concentration of radioactivity, liver, Mean: 7.11 % ID/g
  Concentration of radioactivity, lungs, Mean: 5.32 % ID/g
  Concentration of radioactivity, muscle (skeletal muscle), Mean: 0.95 % ID/g
  Concentration of radioactivity, spleen, Mean: 7.60 % ID/g
  Concentration of radioactivity, uvea (pigmented tissues of the eye), Mean: 36.62 % ID/g
[1]; 24 H after i.v. administration
  Concentration of radioactivity, B 16 (tumour), Mean: 12.13 % ID/g
  Concentration of radioactivity, Ic (intestinal contents), Mean: 1.45 % ID/g
  Concentration of radioactivity, Sc (stomach contents), Mean: 2.33 % ID/g
  Concentration of radioactivity, kidney, Mean: 0.34 % ID/g
  Concentration of radioactivity, liver, Mean: 2.25 % ID/g
  Concentration of radioactivity, lungs, Mean: 0.53 % ID/g
  Concentration of radioactivity, spleen, Mean: 2.66 % ID/g
  Concentration of radioactivity, uvea (pigmented tissues of the eye), Mean: 22.27 % ID/g
[1]; 72 H after i.v. administration
  Concentration of radioactivity, B 16 (tumour), Mean: 5.93 % ID/g
  Concentration of radioactivity, liver, Mean: 1.23 % ID/g
  Concentration of radioactivity, spleen, Mean: 1.85 % ID/g
  Concentration of radioactivity, uvea (pigmented tissues of the eye), Mean: 18.30 % ID/g
[1]
  tumour concentration, times higher than with BZA: 8 times
  tumour concentration, % of the injected dose per gram of tumour: 19.6 % ID/g
tumour
  Effective period: 31.8 h
  Biological period: 38.0 hours
[2]
  Faecal elimination 0-72 hours (Faeces): 11.4%
  Urinary and faecal elimination 0-72 hours (Total): 91.2%
  Urinary elimination 0-72 hours (Urine): 80.7%
[2]; urinary versus faecal, 0-72 hours
  elimination route (in words): predominantly in the urine
